Laboratory results as given in PMC7586386, “Discovery of Covalent Inhibitors Targeting the Transcriptional Enhanced Associate Domain Central Pocket” (Journal of Medicinal Chemistry, 2020).

Assays:
hTEAD4 = biological target: T1, hTEAD4 (Homo sapiens, UniProt Q15561); experiment: Cellular thermal shift assay (CETSA) in HCT116 cell lysates; assay type: cell-based; settings: 50 μM, 10 min, DMSO 49.8
T1 construct: Target engagement in HCT116 cell lysates was proven by means of a cellular thermal shift assay; endogenous in cells; host or cells: HCT116 cell lysate
Procedure: HCT116 cells were grown in Dulbecco’s modified Eagle’s medium (Sigma-Aldrich, #P04-03550) containing 10% fetal bovine serum, 1× NEAA (Sigma-Aldrich, # P08-32800) and 1 mM sodium pyruvate (Sigma-Aldrich, #S8636) until they reached 90% confluency. Cells were detached, transferred to two separate tubes, and washed three times with PBS. Then, 0.6 mL of PBS containing 0.04% NP-40 was added to each tube and cells were lysed by means of freeze and thaw. Lysates were centrifuged (Beckman Optima MAX-TL) at 100,000g, 4 °C for 25 min and protein concentration was determined using the DC Protein Assay Kit I (Bio-Rad, #5000111). Aliquots (1.5 mL) containing 1 mg/mL protein were stored at −80 °C until further usage.
Compound 19 (2.75 μL 10 mM stock, 50 μM) or DMSO (2.75 μL) was added to 550 μL of HCT116 lysates (1 mg/mL), samples were mixed and incubated for 10 min at room temperature. Treated and nontreated lysates were divided into ten aliquots, each 50 μL in PCR tubes. The aliquots were individually heated at different temperatures (Eppendorf Mastercycler ep Gradient S). […] To 16 μL of each supernatant was added 4 μL of 5× loading buffer and incubated for 5 min at 95 °C, before samples were analyzed by immunoblotting. […]
Images were analyzed with ImageJ (FUJI). […]

hTEAD1–4 = experiment: Thiol conjugation assay, TEAD homologues (range over all four); assay type: binding, human
Procedure: To serially diluted solutions of the tested compounds in 5 μL of assay buffer [HEPES (25 mM) and NaCl (150 mM) pH 6.5], freshly prepared 5 μL of 0.45 μM protein solution was added and incubated at room temperature for 10 min, followed by addition of 5 μL of 0.45 μM CPM solution, giving a 15 μL final assay volume, 150 nM protein, and 150 nM CPM. The assay plate was shaken at room temperature for 1 h before measuring the fluorescence (Ex/Em: 380/470 nm). Compound 19 was used as an internal standard to determine 100% inhibition.

hTEAD4 (acylated) = biological target: T2, hTEAD4 (acylated) (Homo sapiens, UniProt Q15561); experiment: Whole-protein ESI–MS of covalent modification; assay type: binding; settings: hTEAD4 not treated with hydroxylamine
T2 construct: N-terminal His6-tagged hTEAD4^217–434 was subcloned; made in house; host or cells: Escherichia coli BL21-CodonPlus (DE3)-RIPL
Procedure: (§1) The protein solution (1 μL 5 μM) was injected to UPLC-MS (ThermoScientific_UltiMate 3000 LC coupled to a Velos Pro MS) through a desalting column (MassPREP Online desalting, 2.1 × 10 mm). For reactions, 1 μM of the protein was incubated at room temperature for 1 h with 8 equiv of the compound in HEPES (25 mM) and NaCl (150 mM) pH 6.5 buffer. Then, the mixture was centrifuged before injecting 5 μL. The deconvolution of m/z values was performed using Promass Xcalibur software.

hTEAD4 (nonacylated) = biological target: T3, hTEAD4 (nonacylated) (Homo sapiens, UniProt Q15561); experiment: Whole-protein ESI–MS of covalent modification; assay type: binding; settings: 8 equiv of compound, 1 h, rt
T3 construct: N-terminal His6-tagged hTEAD4^217–434 was subcloned; made in house; host or cells: Escherichia coli BL21-CodonPlus (DE3)-RIPL
Procedure: as §1

T1 sequence (Q15561 whole entry): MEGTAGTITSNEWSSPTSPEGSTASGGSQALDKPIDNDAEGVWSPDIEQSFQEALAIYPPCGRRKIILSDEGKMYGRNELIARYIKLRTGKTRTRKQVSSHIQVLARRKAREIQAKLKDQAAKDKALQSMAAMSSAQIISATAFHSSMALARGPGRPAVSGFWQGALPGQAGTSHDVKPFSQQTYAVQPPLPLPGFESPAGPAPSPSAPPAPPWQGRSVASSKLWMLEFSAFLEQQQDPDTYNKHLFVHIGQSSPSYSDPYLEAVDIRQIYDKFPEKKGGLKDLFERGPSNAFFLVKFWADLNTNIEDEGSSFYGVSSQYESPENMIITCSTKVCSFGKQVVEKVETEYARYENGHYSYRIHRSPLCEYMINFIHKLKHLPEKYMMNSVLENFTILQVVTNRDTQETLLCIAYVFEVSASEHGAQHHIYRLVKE
T3 sequence (Q15561 217-434): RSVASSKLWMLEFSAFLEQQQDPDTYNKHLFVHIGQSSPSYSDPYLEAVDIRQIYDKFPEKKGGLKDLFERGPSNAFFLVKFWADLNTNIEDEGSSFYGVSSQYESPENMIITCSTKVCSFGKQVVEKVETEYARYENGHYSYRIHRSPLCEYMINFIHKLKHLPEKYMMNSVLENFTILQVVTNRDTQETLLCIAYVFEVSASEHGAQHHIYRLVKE
T2 sequence (Q15561 217-434): as above

## O=c1cc(CO)oc(C(Nc2ccccc2)c2ccccc2)c1O (stereo not shown) [Compound 19, 3-Hydroxy-6-(hydroxymethyl)-2-(phenyl(phenylamino)methyl)-4H-pyran-4-one]
hTEAD4
  melting temperature of hTEAD4 (CETSA): 53.1 °C
hTEAD1–4
  IC50: 2.6 to 6.9 µM
hTEAD4 (acylated)
  adduct formation with acylated protein (whole-protein ESI–MS): did not result in the formation of an acylated hTEAD4-19 adduct
hTEAD4 (nonacylated)
  modification of the protein (whole-protein ESI–MS): modification of the protein (+230 Da) was observed
